Source: patent US10457691B2, “Macrocyclic kinase inhibitors and uses thereof” (Dana-Farber Cancer Institute, Inc., priority 2014, dated 2019)

How the values were obtained:
Format in all cases: biochemical
BRSK1 = BRSK1 (Homo sapiens, UniProt Q8TDC3); test: Protein kinase assay ([γ-32P] ATP), BRSK1; details: read-out: Activity of the protein kinase when treated with compound I-1 (% control)
Procedure: (§1) In another set of experiments, the activities of the compounds described herein against various protein kinases were determined according to the methods reported in Hastie et al., Nature Protocols, 2006, 1, 968-971.
(§2) Enzyme dilution buffer. This buffer consisted of 50 mM Tris-HCl, pH 7.5, 0.1 mM EGTA, 1 mg ml^−1 bovine serum albumin and 0.1% (vol/vol) 2-mercaptoethanol.
(§3) 10× concentrated assay buffer. An assay buffer of 500 mM Tris-HCl, pH 7.5, 1 mM EGTA, and 100 mM magnesium acetate was used for assay of a wide variety of protein kinases. In some experiments, other cofactors were included (e.g., calcium ions and calmodulin were included for assay of calcium-calmodulindependent protein kinases).
(§4) 1 mM [γ-^32P] ATP. The specific activity of the [γ-^32P] ATP solution was 1×10^5 to 1×10^6 c.p.m. per nmol depending on what was needed to produce an optimal signal/noise ratio. […] To measure the concentration of ATP, a sample of such a stock solution was diluted to 20 μM, and the absorbance of the diluted sample was measured at 259 nm. The absorbance of a 20-μM stock solution of ATP at 259 nm was about 0.31. […] ATP to produce a radioactivity of 1×10^5 to 1×10^6 c.p.m. per nmol. […]
(§5) 13) Measure radioactivity in the samples by Cerenkov counting (e.g., without liquid scintillation fluid) in a liquid scintillation counter using a “^32P program”. […]

CHK1 = CHK1 (Homo sapiens, UniProt O14757); test: Protein kinase assay ([γ-32P] ATP), CHK1; details: read-out: Activity of the protein kinase when treated with compound I-1 (% control)
Procedure: as §1, §2, §3, §4, §5

CK1δ = CK1δ (Homo sapiens, UniProt P48730); test: Protein kinase assay ([γ-32P] ATP), CK1δ; details: read-out: Activity of the protein kinase when treated with compound I-1 (% control)
Procedure: as §1, §2, §3, §4, §5

CK2 = test: Protein kinase assay ([γ-32P] ATP), CK2
Procedure: as §1, §2, §3, §4, §5

CSK = CSK (Homo sapiens, UniProt P41240); test: Protein kinase assay ([γ-32P] ATP), CSK; details: read-out: Activity of the protein kinase when treated with compound I-1 (% control)
Procedure: as §1, §2, §3, §4, §5

EPH-A2 = EPH-A2 (Homo sapiens, UniProt P29317); test: Protein kinase assay ([γ-32P] ATP), EPH-A2; details: read-out: Activity of the protein kinase when treated with compound I-1 (% control)
Procedure: as §1, §2, §3, §4, §5

EPH-B2 = EPH-B2 (Homo sapiens, UniProt P29323); test: Protein kinase assay ([γ-32P] ATP), EPH-B2; details: read-out: Activity of the protein kinase when treated with compound I-1 (% control)
Procedure: as §1, §2, §3, §4, §5

EPH-B3 = EPH-B3 (Homo sapiens, UniProt P54753); test: Protein kinase assay ([γ-32P] ATP), EPH-B3; details: read-out: Activity of the protein kinase when treated with compound I-1 (% control)
Procedure: as §1, §2, §3, §4, §5

HER4 = HER4 (Homo sapiens, UniProt Q15303); test: Protein kinase assay ([γ-32P] ATP), HER4; details: read-out: Activity of the protein kinase when treated with compound I-1 (% control)
Procedure: as §1, §2, §3, §4, §5

HIPK1 = HIPK1 (Homo sapiens, UniProt Q86Z02); test: Protein kinase assay ([γ-32P] ATP), HIPK1; details: read-out: Activity of the protein kinase when treated with compound I-1 (% control)
Procedure: as §1, §2, §3, §4, §5

IR = IR (Homo sapiens, UniProt P06213); test: Protein kinase assay ([γ-32P] ATP), IR; details: read-out: Activity of the protein kinase when treated with compound I-1 (% control)
Procedure: as §1, §2, §3, §4, §5

PDK1 = PDK1 (Homo sapiens, UniProt O15530); test: Protein kinase assay ([γ-32P] ATP), PDK1; details: read-out: Activity of the protein kinase when treated with compound I-1 (% control)
Procedure: as §1, §2, §3, §4, §5

PIM3 = PIM3 (Homo sapiens, UniProt Q86V86); test: Protein kinase assay ([γ-32P] ATP), PIM3; details: read-out: Activity of the protein kinase when treated with compound I-1 (% control)
Procedure: as §1, §2, §3, §4, §5

PKBb = PKBb (Homo sapiens, UniProt P31751); test: Protein kinase assay ([γ-32P] ATP), PKBb; details: read-out: Activity of the protein kinase when treated with compound I-1 (% control)
Procedure: as §1, §2, §3, §4, §5

PKCγ = PKCγ (Homo sapiens, UniProt P05129); test: Protein kinase assay ([γ-32P] ATP), PKCγ; details: read-out: Activity of the protein kinase when treated with compound I-1 (% control)
Procedure: as §1, §2, §3, §4, §5

RIPK2 = RIPK2 (Homo sapiens, UniProt O43353); test: Protein kinase assay ([γ-32P] ATP), RIPK2; details: read-out: Activity of the protein kinase when treated with compound I-1 (% control)
Procedure: as §1, §2, §3, §4, §5

TLK1 = TLK1 (Homo sapiens, UniProt Q9UKI8); test: Protein kinase assay ([γ-32P] ATP), TLK1; details: read-out: Activity of the protein kinase when treated with compound I-1 (% control)
Procedure: as §1, §2, §3, §4, §5

[1] = 0.1 μM of compound I-1, DMSO control = 100%
[2] = 1 μM of compound I-1, DMSO control = 100%

Chain of PDK1 (O15530 whole entry): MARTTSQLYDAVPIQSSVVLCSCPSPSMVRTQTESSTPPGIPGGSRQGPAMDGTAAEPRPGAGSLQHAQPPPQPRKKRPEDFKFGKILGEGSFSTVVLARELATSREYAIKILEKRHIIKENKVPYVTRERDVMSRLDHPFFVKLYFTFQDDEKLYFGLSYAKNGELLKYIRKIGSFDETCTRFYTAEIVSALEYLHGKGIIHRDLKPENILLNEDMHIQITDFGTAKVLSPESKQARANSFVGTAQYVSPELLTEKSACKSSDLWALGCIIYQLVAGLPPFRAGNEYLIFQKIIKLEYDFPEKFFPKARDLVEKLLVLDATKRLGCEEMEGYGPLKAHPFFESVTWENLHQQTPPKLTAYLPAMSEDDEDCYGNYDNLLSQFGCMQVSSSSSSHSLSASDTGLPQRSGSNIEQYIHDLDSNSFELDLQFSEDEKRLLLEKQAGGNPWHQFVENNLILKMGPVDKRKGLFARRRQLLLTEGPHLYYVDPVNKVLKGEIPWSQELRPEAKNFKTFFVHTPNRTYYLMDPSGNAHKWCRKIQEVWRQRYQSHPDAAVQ
Chain of EPH-B2 (P29323 19-1055): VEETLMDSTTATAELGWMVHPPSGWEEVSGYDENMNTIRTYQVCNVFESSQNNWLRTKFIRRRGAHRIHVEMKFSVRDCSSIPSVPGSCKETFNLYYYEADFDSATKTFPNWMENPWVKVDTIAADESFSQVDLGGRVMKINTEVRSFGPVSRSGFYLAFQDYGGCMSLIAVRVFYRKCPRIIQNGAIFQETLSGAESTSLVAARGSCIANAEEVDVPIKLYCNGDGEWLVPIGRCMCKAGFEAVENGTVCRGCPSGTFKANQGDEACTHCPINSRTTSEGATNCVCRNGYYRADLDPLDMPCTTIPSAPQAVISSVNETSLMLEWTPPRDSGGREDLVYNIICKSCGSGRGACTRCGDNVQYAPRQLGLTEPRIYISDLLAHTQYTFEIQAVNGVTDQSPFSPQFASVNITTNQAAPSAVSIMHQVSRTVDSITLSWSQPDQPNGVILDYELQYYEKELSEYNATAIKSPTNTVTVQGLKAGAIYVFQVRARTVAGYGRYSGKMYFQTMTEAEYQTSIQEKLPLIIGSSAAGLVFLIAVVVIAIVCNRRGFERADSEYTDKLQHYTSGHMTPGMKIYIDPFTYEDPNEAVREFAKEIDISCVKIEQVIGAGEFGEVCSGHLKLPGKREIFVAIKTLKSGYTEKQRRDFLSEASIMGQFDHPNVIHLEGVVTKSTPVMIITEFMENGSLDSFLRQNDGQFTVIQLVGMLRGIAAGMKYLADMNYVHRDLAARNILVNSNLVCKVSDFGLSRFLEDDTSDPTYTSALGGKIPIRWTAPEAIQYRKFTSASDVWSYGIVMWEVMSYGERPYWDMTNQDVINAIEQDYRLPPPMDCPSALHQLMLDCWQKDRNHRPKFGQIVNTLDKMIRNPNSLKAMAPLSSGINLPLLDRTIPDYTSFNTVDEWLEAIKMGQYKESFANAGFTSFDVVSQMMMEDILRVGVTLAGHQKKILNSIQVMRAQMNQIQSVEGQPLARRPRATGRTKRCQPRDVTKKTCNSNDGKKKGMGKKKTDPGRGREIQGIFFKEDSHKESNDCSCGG
Chain of CK1δ (P48730 whole entry): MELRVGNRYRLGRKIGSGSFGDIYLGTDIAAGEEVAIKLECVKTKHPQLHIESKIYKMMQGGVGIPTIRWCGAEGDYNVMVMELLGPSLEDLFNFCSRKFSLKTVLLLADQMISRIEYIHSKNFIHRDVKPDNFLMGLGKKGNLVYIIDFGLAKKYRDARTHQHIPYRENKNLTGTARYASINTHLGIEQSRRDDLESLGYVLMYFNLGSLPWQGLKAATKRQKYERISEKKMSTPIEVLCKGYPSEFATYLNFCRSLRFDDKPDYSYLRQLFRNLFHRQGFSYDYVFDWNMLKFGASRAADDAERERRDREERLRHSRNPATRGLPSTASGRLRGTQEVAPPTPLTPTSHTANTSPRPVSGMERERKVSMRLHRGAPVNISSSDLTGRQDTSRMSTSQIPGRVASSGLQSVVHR
Chain of HIPK1 (Q86Z02 whole entry): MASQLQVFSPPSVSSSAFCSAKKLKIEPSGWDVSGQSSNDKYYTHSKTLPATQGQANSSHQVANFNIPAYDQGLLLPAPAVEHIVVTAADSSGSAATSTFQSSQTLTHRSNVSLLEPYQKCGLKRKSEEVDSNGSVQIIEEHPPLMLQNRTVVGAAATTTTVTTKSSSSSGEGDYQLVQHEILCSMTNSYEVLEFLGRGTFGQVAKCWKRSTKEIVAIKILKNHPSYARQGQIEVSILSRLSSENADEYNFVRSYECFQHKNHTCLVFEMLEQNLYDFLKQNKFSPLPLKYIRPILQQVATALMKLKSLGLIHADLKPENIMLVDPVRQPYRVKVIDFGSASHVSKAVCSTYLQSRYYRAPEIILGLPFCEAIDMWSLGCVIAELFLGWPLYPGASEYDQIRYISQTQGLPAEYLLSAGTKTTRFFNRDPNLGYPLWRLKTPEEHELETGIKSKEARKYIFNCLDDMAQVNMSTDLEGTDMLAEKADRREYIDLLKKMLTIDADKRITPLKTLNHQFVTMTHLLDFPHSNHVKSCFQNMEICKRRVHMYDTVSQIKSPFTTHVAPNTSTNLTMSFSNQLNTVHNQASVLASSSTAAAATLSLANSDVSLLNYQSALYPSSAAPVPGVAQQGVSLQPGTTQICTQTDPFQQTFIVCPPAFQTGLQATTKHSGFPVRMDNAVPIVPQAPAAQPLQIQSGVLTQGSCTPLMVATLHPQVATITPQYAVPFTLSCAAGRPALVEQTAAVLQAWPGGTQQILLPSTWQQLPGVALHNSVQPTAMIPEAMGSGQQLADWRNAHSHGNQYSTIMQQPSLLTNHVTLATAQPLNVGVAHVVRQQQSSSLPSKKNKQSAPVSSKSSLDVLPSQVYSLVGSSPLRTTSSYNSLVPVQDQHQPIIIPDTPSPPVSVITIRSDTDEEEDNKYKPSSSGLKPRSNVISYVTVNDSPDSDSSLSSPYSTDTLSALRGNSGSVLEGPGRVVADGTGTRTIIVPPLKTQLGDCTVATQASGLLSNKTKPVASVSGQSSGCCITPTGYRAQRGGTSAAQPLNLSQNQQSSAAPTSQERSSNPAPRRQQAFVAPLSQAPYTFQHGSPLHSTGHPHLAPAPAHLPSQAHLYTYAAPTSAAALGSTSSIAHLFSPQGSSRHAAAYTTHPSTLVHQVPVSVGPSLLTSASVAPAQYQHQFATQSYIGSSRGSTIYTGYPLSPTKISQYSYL
Chain of TLK1 (Q9UKI8 whole entry, species assumed): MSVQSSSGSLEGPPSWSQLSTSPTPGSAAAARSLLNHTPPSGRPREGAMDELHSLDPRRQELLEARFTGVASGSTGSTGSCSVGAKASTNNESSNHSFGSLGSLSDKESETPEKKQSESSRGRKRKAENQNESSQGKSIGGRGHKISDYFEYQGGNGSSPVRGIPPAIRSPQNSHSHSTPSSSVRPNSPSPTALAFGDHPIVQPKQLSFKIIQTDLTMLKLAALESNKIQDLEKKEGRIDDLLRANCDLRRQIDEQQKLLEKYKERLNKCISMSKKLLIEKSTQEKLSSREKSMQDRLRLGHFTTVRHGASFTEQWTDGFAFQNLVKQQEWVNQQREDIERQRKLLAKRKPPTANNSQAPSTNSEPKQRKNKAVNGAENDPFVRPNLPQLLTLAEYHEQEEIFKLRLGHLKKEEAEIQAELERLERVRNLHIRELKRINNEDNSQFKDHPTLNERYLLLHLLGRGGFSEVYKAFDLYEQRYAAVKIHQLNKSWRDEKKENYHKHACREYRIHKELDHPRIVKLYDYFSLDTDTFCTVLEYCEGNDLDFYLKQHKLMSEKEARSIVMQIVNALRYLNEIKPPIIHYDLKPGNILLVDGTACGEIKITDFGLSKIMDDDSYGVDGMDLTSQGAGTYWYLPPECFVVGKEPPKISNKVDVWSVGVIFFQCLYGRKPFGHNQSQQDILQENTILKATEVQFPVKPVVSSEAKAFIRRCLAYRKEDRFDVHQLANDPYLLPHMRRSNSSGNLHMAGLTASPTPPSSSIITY
Chain of CHK1 (O14757 whole entry): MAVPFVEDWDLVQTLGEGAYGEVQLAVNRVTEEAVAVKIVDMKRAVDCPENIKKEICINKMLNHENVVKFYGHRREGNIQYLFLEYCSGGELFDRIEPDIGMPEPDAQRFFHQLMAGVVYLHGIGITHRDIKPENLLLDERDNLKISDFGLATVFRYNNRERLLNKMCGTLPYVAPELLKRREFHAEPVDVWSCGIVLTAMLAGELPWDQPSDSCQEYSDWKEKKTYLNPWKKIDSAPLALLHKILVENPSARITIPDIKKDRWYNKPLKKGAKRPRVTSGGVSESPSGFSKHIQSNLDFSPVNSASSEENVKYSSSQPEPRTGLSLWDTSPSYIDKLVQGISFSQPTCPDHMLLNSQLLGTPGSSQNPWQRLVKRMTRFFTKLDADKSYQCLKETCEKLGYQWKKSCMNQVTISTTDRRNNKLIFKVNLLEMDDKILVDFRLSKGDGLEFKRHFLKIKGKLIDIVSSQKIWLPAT
Chain of PKBb (P31751 whole entry): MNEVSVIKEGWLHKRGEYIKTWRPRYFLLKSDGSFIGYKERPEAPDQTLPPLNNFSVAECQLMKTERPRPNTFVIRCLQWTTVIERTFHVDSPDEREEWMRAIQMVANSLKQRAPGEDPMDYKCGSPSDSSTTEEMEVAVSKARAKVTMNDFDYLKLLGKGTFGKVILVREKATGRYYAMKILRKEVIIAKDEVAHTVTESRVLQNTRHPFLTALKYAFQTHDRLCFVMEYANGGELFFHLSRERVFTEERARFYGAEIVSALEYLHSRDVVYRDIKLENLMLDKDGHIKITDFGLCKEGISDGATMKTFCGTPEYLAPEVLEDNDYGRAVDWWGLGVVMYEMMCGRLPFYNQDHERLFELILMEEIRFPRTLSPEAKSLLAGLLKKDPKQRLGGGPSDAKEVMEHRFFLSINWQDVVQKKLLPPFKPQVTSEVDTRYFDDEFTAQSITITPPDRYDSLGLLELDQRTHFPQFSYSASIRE

## Cc1cccc(C)c1NC(=O)N1C/C=C\COc2cccc(c2)Nc2cc1ncn2 [Compound I-1]
BRSK1; [1]
  remaining activity at 0.1 µM: 87%
BRSK1; [2]
  remaining activity at 1 µM: 66%
CHK1; [1]
  remaining activity at 0.1 µM: 99%
CHK1; [2]
  remaining activity at 1 µM: 94%
CK1δ; [1]
  remaining activity at 0.1 µM: 97%
CK1δ; [2]
  remaining activity at 1 µM: 99%
CK2; [1]
  Activity of the protein kinase when treated with compound I-1 (% control): 97 % control
CK2; [2]
  Activity of the protein kinase when treated with compound I-1 (% control): 91 % control
CSK; [1]
  remaining activity at 0.1 µM: 101%
CSK; [2]
  remaining activity at 1 µM: 10%
EPH-A2; [1]
  remaining activity at 0.1 µM: 11%
EPH-A2; [2]
  remaining activity at 1 µM: 5%
EPH-B2; [1]
  remaining activity at 0.1 µM: 54%
EPH-B2; [2]
  remaining activity at 1 µM: 1%
EPH-B3; [1]
  remaining activity at 0.1 µM: 25%
EPH-B3; [2]
  remaining activity at 1 µM: 2%
HER4; [1]
  remaining activity at 0.1 µM: 100%
HER4; [2]
  remaining activity at 1 µM: 71%
HIPK1; [1]
  remaining activity at 0.1 µM: 99%
HIPK1; [2]
  remaining activity at 1 µM: 82%
IR; [1]
  remaining activity at 0.1 µM: 102%
IR; [2]
  remaining activity at 1 µM: 93%
PDK1; [1]
  remaining activity at 0.1 µM: 103%
PDK1; [2]
  remaining activity at 1 µM: 87%
PIM3; [1]
  remaining activity at 0.1 µM: 93%
PIM3; [2]
  remaining activity at 1 µM: 84%
PKBb; [1]
  remaining activity at 0.1 µM: 102%
PKBb; [2]
  remaining activity at 1 µM: 89%
PKCγ; [1]
  remaining activity at 0.1 µM: 98%
PKCγ; [2]
  remaining activity at 1 µM: 92%
RIPK2; [1]
  remaining activity at 0.1 µM: 33%
RIPK2; [2]
  remaining activity at 1 µM: 5%
TLK1; [1]
  remaining activity at 0.1 µM: 112%
TLK1; [2]
  remaining activity at 1 µM: 92%
